We go through one compound from patent US5659049A, “Antioxidant, antiphospholipase derivatives of ricinoleic acid” (Virginia Commonwealth University, priority 1995, dated 1997).

SMILES strings stand for the structures.

The subject of the test is N. naja cobra venom phospholipase. Briefly: In vitro inhibition of N. naja cobra venom phospholipase (FIG. 8). Format: biochemical.

On to `CCCCCCC(C/C=C\CCCCCCCC(=O)O)OC(=O)CCCCCCCCC(=O)O` (stereo not shown) [RISE-1, Ricinoleic Acid Sebacyl Ester], for which the “Inhibition of N. naja cobra venom phospholipase” value is listed as “dose related, selective in vitro inhibition”.
